Assay results reported in ChEMBL document CHEMBL3627668, “Structure-activity relationships of furazano[3,4-b]pyrazines as mitochondrial uncouplers” (Bioorg Med Chem Lett, 2015).
pEC50: −log10 of the molar value.

Key:
L6 [1] = assay: Induction of mitochondrial uncoupling in rat L6 cells assessed as stimulation of cellular oxygen consumption; type: functional, cell-based; conditions: for EC50: l6; for pEC50: Rattus norvegicus, L6, read-out: EC50
L6 [2] = assay: Induction of mitochondrial uncoupling in rat L6 cells assessed as stimulation of cellular oxygen consumption relative to control; type: functional

SMILES	EC50 (L6 [1])	%max (L6 [2])	pEC50 (L6 [1])
c1ccc(Nc2nc3nonc3nc2Nc2ccccc2)cc1	ND(Insoluble)	172.8%	–
c1ccc(Nc2nc3nonc3nc2Nc2ccccn2)nc1	ND(Insoluble)	–	–
CCCNc1nc2nonc2nc1NCCC	ND(Insoluble)	98%	–
Ic1ccccc1Oc1nc2nonc2nc1Oc1ccccc1I	ND(Insoluble)	98.8%	–
CCONc1nc2nonc2nc1NOCC	ND(Insoluble)	100%	–
c1ccc(Oc2nc3nonc3nc2Oc2ccccc2)cc1	ND(Insoluble)	98.3%	–
Fc1ccccc1Oc1nc2nonc2nc1Oc1ccccc1F	ND(Insoluble)	93%	–
Fc1cccc(Nc2nc3nonc3nc2Nc2cccc(F)c2)c1	–	220.8%	6.74
FC(F)(F)CONc1nc2nonc2nc1NOCC(F)(F)F	ND(Insoluble)	96.3%	–
Fc1ccc(Nc2nc3nonc3nc2Nc2ccc(F)cc2)cc1	–	204%	6.34
CCCCCCNc1nc2nonc2nc1NCCCCCC	ND(Insoluble)	160.2%	–
Fc1ccc(Nc2nc3nonc3nc2Nc2ccc(F)cc2F)c(F)c1	–	222.6%	7.40
Clc1ccc(Nc2nc3nonc3nc2Nc2ccc(Cl)cc2)cc1	–	190.4%	6.57
CCCCNc1nc2nonc2nc1NCCCC	ND(Insoluble)	116%	–
